# Laboratory results taken from patent US20260217672A1, “BENZAMIDE COMPOUNDS FOR TREATMENT OF BACTERIAL INFECTIONS” (Hoffmann-La Roche Inc., priority 2022, published 2026).
# Legend:
# [1] = tested on: Escherichia coli ATCC 25922; assay: Minimal Inhibitory Concentration (MIC) broth dilution assay; type: cell-based; conditions: ATCC25922, 20 h, read-out: MIC Escherichia coli ATCC 25922
# Method: (§1) The antibacterial activity of the compounds of the present invention was evaluated against the commonly used quality control strain Escherichia coli ATCC 25922 and the rifampin-resistant mutant strain Klebsiella pneumonia ATCC 43816. Both were originally derived from human clinical samples and are available from ATCC (American Type Culture Collection). The in vitro potency of compounds to inhibit Escherichia coli (ATCC 25922) and Klebsiella pneumonia (ATCC 43816) growth was assessed by the MIC (Minimal Inhibitory Concentration) broth dilution method. Specifically compound dilutions were prepared from 10 mM DMSO stock solutions as follows: i) serial 2-fold dilution in 20 μL DMSO were prepared in a master plate (Greiner, Cat No: 651201), ii) 180 μL sterile distilled water was added to each aliquot and iii) 10 μL diluted compounds were transferred into a new assay plate (Costar, 3599).
# (§2) Vials of each test microorganisms were maintained frozen in the vapor phase of a liquid nitrogen freezer. Single-use frozen vials of the two strains Escherichia coli ATCC 25922 (KWIKSTIK, 0335K) and Klebsiella pneumonia ATCC 43816, with predetermined CFU/mL, were taken out from the freezer, thawed at room temperature, and diluted in Cation-Adjusted Mueller Hinton Broth (CAMHB) to achieve a final inoculum of 5×10^5 CFU/mL. 90 μL bacteria containing broth was dispensed to the assay plate containing the pre-dispensed compound dilutions and mixed by pipetting 5 times.
# (§3) Then the assay plates were incubated for 20 hours at 35° C. in ambient air. Following incubation, the MIC ([…]), the lowest concentration of drug that inhibits visible growth of the microorganism was read with the help of a magnification mirror and recorded.
# [2] = tested on: Klebsiella pneumonia ATCC 43816; assay: as above; type: cell-based; conditions: Klebsiella pneumoniae, ATCC43816, 20 h, read-out: MIC Klebsiella pneumoniae ATCC43816
# Method: as §1, §2, §3
Compound,MIC [1] [µg/mL],MIC [2] [µg/mL]
"NCCCNCc1ccc(C(=O)Nc2ccc(S(=O)(=O)N3CCN(c4cc(Br)cc(Cl)n4)CC3)cc2)cc1 [Example 007, 4-[(3-Aminopropylamino)methyl]-N-[4-[4-(4-bromo-6-chloro-2-pyridyl)piperazin-1-yl]sulfonylphenyl]benzamide]",0.97,0.97
"NCCCNCc1ccc(C(=O)Nc2ccc(S(=O)(=O)N3CCN(c4cc(C(F)(F)F)cc(OC5CC5)n4)CC3)cc2)cc1 [Example 009, 4-[(3-Aminopropylamino)methyl]-N-[4-[4-[6-(cyclopropoxy)-4-(trifluoromethyl)-2-pyridyl]piperazin-1-yl]sulfonylphenyl]benzamide]",5.4,11
"CCOc1cc(C(F)(F)F)cc(N2CCN(S(=O)(=O)c3ccc(NC(=O)c4ccc(CNCCCN)cc4)cc3)CC2)n1 [Example 010, 4-[(3-Aminopropylamino)methyl]-N-[4-[4-[6-ethoxy-4-(trifluoromethyl)-2-pyridyl]piperazin-1-yl]sulfonylphenyl]benzamide]",5.3,11
"CCc1cc(C(F)(F)F)cc(N2CCN(S(=O)(=O)c3ccc(NC(=O)c4ccc(CNCCCN)cc4)cc3)CC2)n1 [Example 011, 4-[(3-Aminopropylamino)methyl]-N-[4-[4-[6-ethyl-4-(trifluoromethyl)-2-pyridyl]piperazin-1-yl]sulfonylphenyl]benzamide]",3.8,7.6
"NCCCNCCc1ccc(C(=O)Nc2ccc(S(=O)(=O)N3CCN(c4cc(Cl)c(Cl)cn4)CC3)cc2)cc1 [Example 014, 4-[2-(3-Aminopropylamino)ethyl]-N-[4-[4-(4,5-dichloro-2-pyridyl)piperazin-1-yl]sulfonylphenyl]benzamide]",15,30
"N#Cc1cc(N2CCN(S(=O)(=O)c3ccc(NC(=O)c4ccc(CCNCCCN)cc4)cc3)CC2)nc(C(F)(F)F)c1 [Example 015, 4-[2-(3-Aminopropylamino)ethyl]-N-[4-[4-[4-cyano-6-(trifluoromethyl)-2-pyridyl]piperazin-1-yl]sulfonylphenyl]benzamide]",1.9,3.8
"N#Cc1cc(C(F)(F)F)cc(N2CCN(S(=O)(=O)c3ccc(NC(=O)c4ccc(CCNCCCN)cc4)cc3)CC2)n1 [Example 016, 4-[2-(3-Aminopropylamino)ethyl]-N-[4-[4-[6-cyano-4-(trifluoromethyl)-2-pyridyl]piperazin-1-yl]sulfonylphenyl]benzamide]",1.9,3.8
"CC(F)(F)c1cc(Cl)nc(N2CCN(S(=O)(=O)c3ccc(NC(=O)c4ccc(CCNCCCN)cc4)cc3)CC2)c1 [Example 017, 4-[2-(3-Aminopropylamino)ethyl]-N-[4-[4-[6-chloro-4-(1,1-difluoroethyl)-2-pyridyl]piperazin-1-yl]sulfonylphenyl]benzamide]",0.97,0.97
"Cc1cc(C(F)(F)F)cc(N2CCN(S(=O)(=O)c3ccc(NC(=O)c4cccc(CNCCCN)c4)cc3)CC2)n1 [Example 018, 3-[(3-Aminopropylamino)methyl]-N-[4-[4-[6-methyl-4-(trifluoromethyl)-2-pyridyl]piperazin-1-yl]sulfonylphenyl]benzamide]",0.64,2.6
"COC(=O)c1cc(Cl)nc(N2CCN(S(=O)(=O)c3ccc(NC(=O)c4cccc(CNCCCN)c4)cc3)CC2)c1 [Example 019, Methyl 2-[4-[4-[[3-[(3-aminopropylamino)methyl]benzoyl]amino]phenyl]sulfonylpiperazin-1-yl]-6-chloro-pyridine-4-carboxylate]",2.6,5.2
"CC1CN(c2cc(C(F)(F)F)cc(Cl)n2)CCN1S(=O)(=O)c1ccc(NC(=O)c2cccc(CNCCCN)c2)cc1 (stereo not drawn) [Example 021, 3-[(3-Aminopropylamino)methyl]-N-[4-[4-[6-chloro-4-(trifluoromethyl)-2-pyridyl]-2-methyl-piperazin-1-yl]sulfonylphenyl]benzamide]",3.9,7.8
"CC1CN(S(=O)(=O)c2ccc(NC(=O)c3cccc(CNCCCN)c3)cc2)CCN1c1cc(C(F)(F)F)cc(Cl)n1 (stereo not drawn) [Example 022, 3-[(3-Aminopropylamino)methyl]-N-[4-[4-[6-chloro-4-(trifluoromethyl)-2-pyridyl]-3-methyl-piperazin-1-yl]sulfonylphenyl]benzamide]",3.9,3.9
"NCCCNCc1cccc(C(=O)Nc2ccc(S(=O)(=O)N3CCN(c4cc(C(F)(F)F)cc(Cl)n4)C4CCC43)cc2)c1 (stereo not drawn) [Example 023, 3-[(3-Aminopropylamino)methyl]-N-[4-[[5-[6-chloro-4-(trifluoromethyl)-2-pyridyl]-2,5-diazabicyclo[4.2.0]octan-2-yl]sulfonyl]phenyl]benzamide]",4.2,4.2
"NCCCNCc1cccc(C(=O)Nc2ccc(S(=O)(=O)N3CCN(c4cc(C(F)(F)F)cc(Cl)n4)CC3)cc2)c1 [Example 024, 3-[(3-Aminopropylamino)methyl]-N-[4-[4-[6-chloro-4-(trifluoromethyl)-2-pyridyl]piperazin-1-yl]sulfonylphenyl]benzamide]",0.48,0.96
"N#CN=S(=O)(c1ccc(NC(=O)c2cccc(CCNCCCN)c2)cc1)N1CCN(c2cc(C(F)(F)F)cc(Cl)n2)CC1 (stereo not drawn) [Example 025, 3-[2-(3-Aminopropylamino)ethyl]-N-[4-[S-[4-[6-chloro-4-(trifluoromethyl)-2-pyridyl]piperazin-1-yl]-N-cyano-sulfonimidoyl]phenyl]benzamide]",1.3,5.1
"CN=S(=O)(c1ccc(NC(=O)c2cccc(CNCCCN)c2)cc1)N1CCN(c2cc(C(F)(F)F)cc(Cl)n2)CC1 (stereo not drawn) [Example 026, 3-[(3-aminopropylamino)methyl]-N-[4-[S-[4-[6-chloro-4-(trifluoromethyl)-2-pyridyl]piperazin-1-yl]-N-methyl-sulfonimidoyl]phenyl]benzamide]",3.9,7.8
"COc1cc(NC(=O)c2cccc(CNCCCN)c2)ccc1S(=O)(=O)N1CCN(c2cc(C(F)(F)F)cc(Cl)n2)CC1 [Example 027, 3-[(3-Aminopropylamino)methyl]-N-[4-[4-[6-chloro-4-(trifluoromethyl)-2-pyridyl]piperazin-1-yl]sulfonyl-3-methoxy-phenyl]benzamide]",4,4
"NCCCNCc1cccc(C(=O)Nc2ccc(S(=O)(=O)N3CCN(c4cc(C(F)(F)F)cc(Cl)n4)CC3)c(O)c2)c1 [Example 028, 3-[(3-Aminopropylamino)methyl]-N-[4-[4-[6-chloro-4-(trifluoromethyl)-2-pyridyl]piperazin-1-yl]sulfonyl-3-hydroxy-phenyl]benzamide]",4.6,9.3
"NCCCNCc1ccc(C(=O)Nc2ccc(S(=O)(=O)N3CCN(c4cc(C(F)(F)F)cc(Cl)n4)CC3)cn2)cc1 [Example 029, 4-[(3-Aminopropylamino)methyl]-N-[5-[4-[6-chloro-4-(trifluoromethyl)-2-pyridyl]piperazin-1-yl]sulfonyl-2-pyridyl]benzamide]",1.9,3.8
"COc1cc(S(=O)(=O)N2CCN(c3cc(C(F)(F)F)cc(Cl)n3)CC2)ccc1NC(=O)c1cccc(CNCCCN)c1 [Example 030, 3-[(3-Aminopropylamino)methyl]-N-[4-[4-[6-chloro-4-(trifluoromethyl)-2-pyridyl]piperazin-1-yl]sulfonyl-2-methoxy-phenyl]benzamide]",4,8
"NCCCNCc1cccc(C(=O)Nc2ccc(S(=O)(=O)N3CCN(c4cc(C(F)(F)F)cc(Cl)n4)CC3)cc2O)c1 [Example 031, 3-[(3-Aminopropylamino)methyl]-N-[4-[4-[6-chloro-4-(trifluoromethyl)-2-pyridyl]piperazin-1-yl]sulfonyl-2-hydroxy-phenyl]benzamide]",3.9,3.9
"Cn1cc2c(n1)CN(C(=O)Nc1ccc(S(=O)(=O)N3CCN(c4cc(C(F)(F)F)cc(Cl)n4)CC3)cc1)C2 [Example 032, N-[4-[4-[6-chloro-4-(trifluoromethyl)-2-pyridyl]piperazin-1-yl]sulfonylphenyl]-2-methyl-4,6-dihydropyrrolo[3,4-c]pyrazole-5-carboxamide]",7.1,7.1
"Cn1ncc2c1CN(C(=O)Nc1ccc(S(=O)(=O)N3CCN(c4cc(C(F)(F)F)cc(Cl)n4)CC3)cc1)C2 [Example 033, N-[4-[4-[6-chloro-4-(trifluoromethyl)-2-pyridyl]piperazin-1-yl]sulfonylphenyl]-1-methyl-4,6-dihydropyrrolo[3,4-c]pyrazole-5-carboxamide]",3.6,3.6
"Cn1ncc(C(=O)N2CCc3cc(S(=O)(=O)N4CCN(c5cc(C(F)(F)F)cc(Cl)n5)CC4)ccc32)c1C(=O)O [Example 035, 4-[5-[4-[6-Chloro-4-(trifluoromethyl)-2-pyridyl]piperazin-1-yl]sulfonylindoline-1-carbonyl]-2-methyl-pyrazole-3-carboxylic acid]",3.7,7.5
